Assay results: patent US11771697B2, “Small molecule degraders of polybromo-1 (PBRM1)” (DANA-FARBER CANCER INSTITUTE, INC., priority 2018, dated 2023)

What was measured:
Assay type in all cases: cell-based
CRBN = target: T1, CRBN (Homo sapiens, UniProt Q96SW2); experiment: Cellular CRBN binding assay (BRD4BD2-GFP/mCherry reporter, competition with 100 nM dBET6); conditions: GFP/RFP ratio, Flip-In 293 cells expressing BRD4BD2-GFP, 5 hours
T1 construct: Cells stably expressing BRD4BD2-GFP with mCherry reporter were seeded; endogenous in cells; host or cells: Flip-In 293 cells stably expressing BRD4BD2-eGFP-P2A-mCherry
Description: (§1) BRD4BD2 were subcloned into mammalian pcDNA5/FRT Vector (Ampicillin and Hygromycin B resistant) modified to contain MCS-eGFP-P2A-mCherry. Stable cell lines expressing eGFP-protein fusion and mCherry reporter were generated using the Flip-In™ 293 system. Plasmid (0.3 μg) and pOG44 (4.7 μg) DNA were preincubated in 100 of Opti-MEM I (Gibco™, Life Technologies) media containing 0.05 mg/ml Lipofectamine® 2000 (Invitrogen) for 20 minutes and added to Flip-In™ 293 cells containing 1.9 ml of DMEM media (Gibco™, Life Technologies) per well in a 6-well plate format (Falcon, 353046). Cells were propagated after 48 hours and transferred into a 10 cm^2 plate (Corning, 430165) in DMEM media containing 50 μg/ml of Hygromycin B (REF 10687010, Invitrogen) as a selection marker. Following a 2-3 passage cycle, FACS (FACSAria II, BD) was used to enrich for cells expressing eGFP and mCherry.
Cells stably expressing BRD4BD2-GFP with mCherry reporter were seeded at 30-50% confluency in 384 well plates (3764, Corning) with 50 μl FluoroBrite DMEM media (Gibco™, A18967) containing 10% FBS per well a day before compound treatment. Compounds and 100 nM dBET6 were dispensed using D300e Digital Dispenser (HP) normalized to 0.5% DMSO and incubated with cells for 5 hours. The assay plate was imaged immediately using Acumen eX3/HCl (TTPLabtech) High Content Imager with 488 nm and 561 nm lasers in […] grid per well format. The resulting images were analyzed using CellProfiler (Carpenter, et al., Genome Biol. 7:R100 PIMD 17076895 (2006)).

PBRM1 = target: T2, PBRM1 (Homo sapiens, UniProt Q86U86); experiment: Kelly cell PBRM1 Western blot for cellular degradation of proteins; conditions: Kelly cells; relative to GAPDH, compared to DMSO
T2 construct: near complete degradation of endogenous PBRM1; endogenous in cells; host or cells: Kelly cells
Description: Kelly cells were treated with compounds as indicated and incubated for 6 or 24 hours. Samples were run on 4-20% or Any kD™ SDS-PAGE Gels (Bio-Rad), and transferred to PVDF membranes using the iBlot 2.0 dry blotting system (Thermo-Fisher Scientific). Membranes were blocked with LI-COR blocking solution (LI-COR), and incubated with primary antibodies overnight, followed by three washes in LI-COR blocking solution and incubation with secondary antibodies for one hour in the dark. After three final washes, the membranes were imaged on a LI-COR fluorescent imaging station (LI-COR). Antibodies used: anti-PBRM1 at 1:500 dilution (Cell Signaling, clone D3F70), anti-GAPDH at 1:10,000 dilution (G8795, Sigma), IRDye 680 Donkey anti-mouse at 1:10,000 dilution (926-68072, LI-COR).

PBRM1 PB5 [1] = target: T3, PBRM1 PB5 (Homo sapiens, UniProt Q86U86); experiment: PBRM1 PB5 GFP/RFP degradation assay (flow cytometry reporter assay); conditions: 5 hours, FIG. 3A-3F
Description: as §1, with “PBRM1 PB5 was” for “BRD4BD2 were”, “[…])” for “μg)”, “Lipofectamine” for “Lipofectamine®”
Cells were seeded at 30-50% confluency in either 24, 48 or 96 well plates (3524, 3548, 3596, respectively, Costar) a day before compound treatment. Titrated compounds were incubated with cells for 5 hours following trypsinization and resuspension in DMEM media, transferred into 96-well plates (353910, Falcon) and analyzed by flow cytometer (guava easyCyte HT, Millipore). Signal from minimal 3000 events per well was acquired and the eGFP and mCherry florescence were monitored. Data was analyzed using FlowJo® (FlowJo, LLC). Forward and side scatter outliers, frequently associated with cell debris, were removed leaving >90% of total cells, followed by removal of eGFP and mCherry signal outliers, leaving 88-90% of total cells creating the set used for quantification. The eGFP protein abundance relative to mCherry was then quantified as a ten-fold amplified ratio for each individual cell using the formula: 10×eGFP/mCherry. The median of the ratio was then calculated per set, normalized to the median of the DMSO ratio.
The assay described in Example 16 was repeated, using compounds 3-8 and the control (“negative compound” (G)).

PBRM1 PB5 [2] = target: T3, PBRM1 PB5; experiment: Imaging based PBRM1 PB5 GFP/RFP degradation assay; conditions: after 3 h of incubation; for degradation of PBRM1 PB5: FIG. 3H-3J
Description: Cells stably expressing PBRM1 PB5 in Example 16, were seeded at 30-50% confluency in 384 well plates (3764, Corning) with 50 μL FluoroBrite DMEM media (Gibco, A18967) containing 10% FBS per well a day before compound treatment. […] The assay plate was imaged immediately using Acumen eX3/HCl (TTPLabtech) High Content Imager with 488 nm and 561 nm lasers in […] grid per well format. The resulting images were analyzed using CellProfiler (Carpenter et al., Genome Biol. 7R100 PIMD 17076895 (2006)). A series of image analysis steps (‘image analysis pipeline’) was constructed.
The CellProfiler pipeline steps were as follows. First, the red and green channels were aligned and cropped to target the middle of each well (to avoid analysis of heavily clumped cells at the edges), and a background illumination function was calculated for both red and green channels of each well individually and subtracted to correct for illumination variations across the 384-well plate from various sources of error. An additional step was then applied to the green channel to suppress the analysis of large auto fluorescent artifacts and enhance the analysis of cell specific fluorescence by way of selecting for objects under a given size, 30 A.U., and with a given shape, speckles. Cells that were mCherry-positive were then identified in the red channel filtering for objects between 8-60 pixels in diameter and using intensity to distinguish between clumped objects. The green channel was then segmented into GFP positive and negative areas and objects were labeled as GFP positive if at least 40% of it overlapped with a GFP positive area. The fraction of GFP-positive cells/mCherry-positive cells (GFP/mCherry ratio) in each well was then calculated, and the green and red images were rescaled for visualization. The GFP/mCherry ratio was normalized to DMSO visualized in GraphPad Prism 7.

Nc1nnc(-c2ccccc2O)cc1N1CCN(C(=O)CCOCCNc2cccc3c2CN(C2CCC(=O)NC2=O)C3=O)CC1 (centres unmarked) [Compound 1, 3-(4-((2-(3-(4-(3-amino-6-(2-hydroxyphenyl)pyridazin-4-yl)piperazin-1-yl)-3-oxopropoxy)ethyl)amino)-1-oxoisoindolin-2-yl)piperidine-2,6-dione]
IC50 (CRBN): 30500 nM
degradation of PBRM1 (Western blot, FIG. 4) (PBRM1): degradation of PBRM1

Nc1nnc(-c2ccccc2O)cc1N1CCN(C(=O)CCOCCOCCNc2cccc3c2CN(C2CCC(=O)NC2=O)C3=O)CC1 (centres unmarked) [Compound 2, 3-(4-((2-(2-(3-(4-(3-amino-6-(2-hydroxyphenyl)pyridazin-4-yl)piperazin-1-yl)-3-oxopropoxy)ethoxy)ethyl)amino)-1-oxoisoindolin-2-yl)piperidine-2,6-dione]
IC50 (CRBN): 20900 nM

Nc1nnc(-c2ccccc2O)cc1N1CCN(C(=O)CCCCCCCCOc2cccc3c2C(=O)N(C2CCC(=O)NC2=O)C3=O)CC1 (centres unmarked) [Compound 3, 4-((9-(4-(3-amino-6-(2-hydroxyphenyl)pyridazin-4-yl)piperazin-1-yl)-9-oxononyl)oxy)-2-(2,6-dioxopiperidin-3-yl)isoindoline-1,3-dione]
IC50 (CRBN): 162 nM
DC50 (PBRM1 PB5 [1]): 2.86 nM

Nc1nnc(-c2ccccc2O)cc1N1CCN(C(=O)COc2cccc3c2C(=O)N(C2CCC(=O)NC2=O)C3=O)CC1 (centres unmarked) [Compound 4, 4-(2-(4-(3-amino-6-(2-hydroxyphenyl)pyridazin-4-yl)piperazin-1-yl)-2-oxoethoxy)-2-(2,6-dioxopiperidin-3-yl)isoindoline-1,3-dione]
DC50 (PBRM1 PB5 [1]): 21.8 nM

Nc1nnc(-c2ccccc2O)cc1N1CCN(C(=O)CCCCCCCCCCOc2cccc3c2C(=O)N(C2CCC(=O)NC2=O)C3=O)CC1 (centres unmarked) [Compound 5, 4-((11-(4-(3-amino-6-(2-hydroxyphenyl)pyridazin-4-yl)piperazin-1-yl)-11-oxoundecyl)oxy)-2-(2,6-dioxopiperidin-3-yl)isoindoline-1,3-dione]
DC50 (PBRM1 PB5 [1]): 3.64 nM

Nc1nnc(-c2ccccc2O)cc1N1CCN(C(=O)CCCCCCCOc2cccc3c2C(=O)N(C2CCC(=O)NC2=O)C3=O)CC1 (centres unmarked) [Compound 6, 4-((8-(4-(3-amino-6-(2-hydroxyphenyl)pyridazin-4-yl)piperazin-1-yl)-8-oxooctyl)oxy)-2-(2,6-dioxopiperidin-3-yl)isoindoline-1,3-dione]
DC50 (PBRM1 PB5 [1]): 6.42 nM

Nc1nnc(-c2ccccc2O)cc1N1CCN(C(=O)CCCCCCOc2cccc3c2C(=O)N(C2CCC(=O)NC2=O)C3=O)CC1 (centres unmarked) [Compound 7, 4-((7-(4-(3-amino-6-(2-hydroxyphenyl)pyridazin-4-yl)piperazin-1-yl)-7-oxoheptyl)oxy)-2-(2,6-dioxopiperidin-3-yl)isoindoline-1,3-dione]
DC50 (PBRM1 PB5 [1]): 6.35 nM

Nc1nnc(-c2ccccc2O)cc1N1CCN(C(=O)CCCCCCCCCOc2cccc3c2C(=O)N(C2CCC(=O)NC2=O)C3=O)CC1 (centres unmarked) [Compound 8, 4-((10-(4-(3-amino-6-(2-hydroxyphenyl)pyridazin-4-yl)piperazin-1-yl)-10-oxodecyl)oxy)-2-(2,6-dioxopiperidin-3-yl)isoindoline-1,3-dione]
DC50 (PBRM1 PB5 [1]): 3.9 nM

Cc1ncsc1-c1ccc([C@H](C)NC(=O)[C@@H]2C[C@@H](O)CN2C(=O)[C@@H](NC(=O)CCCCCCCCN2CCN(c3cc(-c4ccccc4O)nnc3N)CC2)C(C)(C)C)cc1 [Compound 11, (2S,4R)-1-((S)-2-(9-(4-(3-amino-6-(2-hydroxyphenyl)pyridazin-4-yl)piperazin-1-yl)nonanamido)-3,3-dimethylbutanoyl)-4-hydroxy-N—((S)-1-(4-(4-methylthiazol-5-yl)phenyl)ethyl)pyrrolidine-2-carboxamide]
degradation of PBRM1 PB5 (PBRM1 PB5 [2]): less effective

Cc1ncsc1-c1ccc([C@H](C)NC(=O)[C@@H]2C[C@@H](O)CN2C(=O)[C@@H](NC(=O)CCCCCCCC(=O)N2CCN(c3cc(-c4ccccc4O)nnc3N)CC2)C(C)(C)C)cc1 [Compound 12, (2S,4R)-1-((S)-2-(9-(4-(3-Amino-6-(2-hydroxyphenyl)pyridazin-4-yl)piperazin-1-yl)-9-oxononanamido)-3,3-dimethylbutanoyl)-4-hydroxy-N—((S)-1-(4-(4-methylthiazol-5-yl)phenyl)ethyl)pyrrolidine-2-carboxamide]
degradation of PBRM1 PB5 (PBRM1 PB5 [2]): potent degradation

Nc1nnc(-c2ccccc2O)cc1N1CCN(CCCCCCNC(=O)COc2cccc3c2C(=O)N(C2CCC(=O)NC2=O)C3=O)CC1 (centres unmarked) [Compound 13, N-(6-(4-(3-amino-6-(2-hydroxyphenyl)pyridazin-4-yl)piperazin-1-yl)hexyl)-2-((2-(2,6-dioxopiperidin-3-yl)-1,3-dioxoisoindolin-4-yl)oxy)acetamide]
degradation of PBRM1 PB5 (PBRM1 PB5 [2]): potent degradation
hook effect (PBRM1 PB5 [2]; high compound concentration): hook effect
